Data published in ChEMBL document CHEMBL4813941, “Secondary Metabolites from the Leather Coral-Derived Fungal Strain Xylaria sp. FM1005 and Their Glycoprotein IIb/IIIa Inhibitory Activity” (J Nat Prod, 2021).
“And” between values parts separate entries of the source, which are not always exact repeats. Identical values can stand only once. The source made the active and inactive calls. No cut-off for these calls is given here.

Key:
Plasma [1] = experiment: Antiplatelet activity in Sprague-Dawley rat platelet-rich plasma assessed as inhibition of ADP-induced platelet aggregation at 1 ug/ml preincubated for 5 mins followed by ADP addition and measured after 5 mins by light microscopic analysis; format: functional, cell-free; conditions: dose 1.0 µg/ml, time 10.0 min
Plasma [2] = experiment: Antiplatelet activity in Sprague-Dawley rat platelet-rich plasma assessed as inhibition of CaCl2-induced platelet aggregation at 1 ug/ml preincubated for 5 mins followed by CaCl2 addition and measured after 5 mins by light microscopic analysis; format: functional, cell-free; conditions: dose 1.0 µg/ml, time 10.0 min
[3] = target: T1, Integrin subunit alpha 2b/beta-3 (Rattus norvegicus) (UniProt D3ZAC0+Q8R2H2); experiment: Inhibition of fibrinogen binding to rat platelet integrin alpha2b beta3 at 1 ug/ml by ELISA based solid phase binding assay; format: cell-based; conditions: dose 1.0 µg/ml
Staphylococcus aureus = experiment: Antibacterial activity against Staphylococcus aureus at 80 ug/ml incubated for 24 hrs by resazurin dye based broth microdilution method; format: functional, organism-based; conditions: dose 80.0 µg/ml
Bacillus subtilis = experiment: Antibacterial activity against Bacillus subtilis at 80 ug/ml incubated for 24 hrs by resazurin dye based broth microdilution method; format: functional, organism-based; conditions: dose 80.0 µg/ml
Pseudomonas aeruginosa = experiment: Antibacterial activity against Pseudomonas aeruginosa at 80 ug/ml incubated for 24 hrs by resazurin dye based broth microdilution method; format: functional, organism-based; conditions: dose 80.0 µg/ml
Escherichia coli = experiment: Antibacterial activity against Escherichia coli at 80 ug/ml incubated for 24 hrs by resazurin dye based broth microdilution method; format: functional, organism-based; conditions: dose 80.0 µg/ml
A2780 = experiment: Antiproliferative activity against human A2780 cells at 40 uM incubated for 72 hrs by CyQuant assay; format: cell-based; conditions: a2780, 72 h
HEK293 = experiment: Antiproliferative activity against human HEK293 cells at 40 uM by SRB assay; format: cell-based; conditions: hek293, 40 µM
[4] = target: T1, Integrin subunit alpha 2b/beta-3 (Rattus norvegicus); experiment: (§1) Inhibition of fibrinogen binding to rat platelet integrin alpha2b beta3 by ELISA based solid phase binding assay; format: cell-based
[5] = target: T2, Integrin subunit alpha 2b/beta-3 (Rattus norvegicus, UniProt D3ZAC0+Q8R2H2); experiment: as §1; format: cell-based
T2 sequence (D3ZAC0 whole entry): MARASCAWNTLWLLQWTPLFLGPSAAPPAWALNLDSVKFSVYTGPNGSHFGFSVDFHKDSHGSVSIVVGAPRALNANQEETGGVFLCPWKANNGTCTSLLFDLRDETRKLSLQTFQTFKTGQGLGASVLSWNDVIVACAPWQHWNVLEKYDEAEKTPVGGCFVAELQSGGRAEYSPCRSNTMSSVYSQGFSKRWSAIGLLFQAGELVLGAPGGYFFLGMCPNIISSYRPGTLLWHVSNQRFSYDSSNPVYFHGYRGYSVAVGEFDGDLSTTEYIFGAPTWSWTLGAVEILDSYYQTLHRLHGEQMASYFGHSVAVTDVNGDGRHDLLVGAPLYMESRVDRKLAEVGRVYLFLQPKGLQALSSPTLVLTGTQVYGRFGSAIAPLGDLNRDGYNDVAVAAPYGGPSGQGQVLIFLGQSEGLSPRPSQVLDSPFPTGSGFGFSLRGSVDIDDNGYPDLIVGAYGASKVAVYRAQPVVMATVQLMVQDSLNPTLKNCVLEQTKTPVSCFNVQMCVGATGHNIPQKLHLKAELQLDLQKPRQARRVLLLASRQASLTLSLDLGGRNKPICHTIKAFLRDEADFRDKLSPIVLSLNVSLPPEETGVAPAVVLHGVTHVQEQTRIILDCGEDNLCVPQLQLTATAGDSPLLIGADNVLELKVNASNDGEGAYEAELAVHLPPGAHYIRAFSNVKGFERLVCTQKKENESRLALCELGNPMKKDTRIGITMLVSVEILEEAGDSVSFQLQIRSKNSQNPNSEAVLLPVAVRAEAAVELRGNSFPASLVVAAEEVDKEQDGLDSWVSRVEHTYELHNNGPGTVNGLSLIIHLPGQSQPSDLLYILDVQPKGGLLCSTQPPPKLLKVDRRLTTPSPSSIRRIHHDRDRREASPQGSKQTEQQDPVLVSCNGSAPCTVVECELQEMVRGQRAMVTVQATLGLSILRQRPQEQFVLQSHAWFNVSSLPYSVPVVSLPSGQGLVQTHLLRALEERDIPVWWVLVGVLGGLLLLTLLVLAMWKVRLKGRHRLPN
T2 sequence (Q8R2H2 whole entry): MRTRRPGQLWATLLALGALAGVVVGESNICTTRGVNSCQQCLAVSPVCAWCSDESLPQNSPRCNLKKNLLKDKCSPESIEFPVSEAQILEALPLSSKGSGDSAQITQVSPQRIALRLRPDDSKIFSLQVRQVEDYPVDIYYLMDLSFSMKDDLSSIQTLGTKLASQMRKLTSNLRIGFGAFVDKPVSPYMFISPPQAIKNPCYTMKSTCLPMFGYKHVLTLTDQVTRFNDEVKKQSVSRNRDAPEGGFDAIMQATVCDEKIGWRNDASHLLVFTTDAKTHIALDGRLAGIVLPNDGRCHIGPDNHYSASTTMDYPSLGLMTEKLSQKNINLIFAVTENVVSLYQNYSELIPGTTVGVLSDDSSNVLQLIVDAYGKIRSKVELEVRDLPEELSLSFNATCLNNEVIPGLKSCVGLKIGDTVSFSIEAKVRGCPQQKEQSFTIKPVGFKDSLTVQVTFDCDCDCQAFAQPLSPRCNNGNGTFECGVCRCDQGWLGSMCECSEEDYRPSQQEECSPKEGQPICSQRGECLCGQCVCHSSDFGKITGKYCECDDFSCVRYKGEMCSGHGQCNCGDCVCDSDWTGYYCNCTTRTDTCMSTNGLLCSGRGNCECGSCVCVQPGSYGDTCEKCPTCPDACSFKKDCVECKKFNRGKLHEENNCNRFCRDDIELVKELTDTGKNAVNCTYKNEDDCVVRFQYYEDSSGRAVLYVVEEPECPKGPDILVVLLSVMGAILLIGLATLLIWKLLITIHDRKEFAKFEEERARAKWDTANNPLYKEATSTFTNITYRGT

With `C/C(=C/COc1ccc(CC(=O)O)cc1)C(=O)O` the Activity (Plasma [1]) was “inactive”, the Activity (Plasma [2]) was “inactive” and the inhibition [3] was “inactive”. The Activity (Staphylococcus aureus) was “inactive”, the Activity (Bacillus subtilis) was “inactive” and the Activity (Pseudomonas aeruginosa) was “inactive”. The Activity (Escherichia coli) was “inactive”, the Activity (A2780) was “Non-Toxic” and the Activity (HEK293) was “Non-Toxic”.
With `CC#CCOc1ccc(C[C@H](NC(=O)CCCCC)C(=O)OC)cc1` the Activity (Plasma [1]) was “Active”, the Activity (Plasma [2]) was “Active” and the inhibition [4] was “Dose-Dependent Effect”. For the same compound, the IC50 [5] was 890 nM and 897 nM, the Activity (Staphylococcus aureus) was “inactive” and the Activity (Bacillus subtilis) was “inactive”. For the same compound, the Activity (Pseudomonas aeruginosa) was “inactive”, the Activity (Escherichia coli) was “inactive” and the Activity (A2780) was “Non-Toxic”. For the same compound, the Activity (HEK293) was “Non-Toxic”.
For `CC#CCOc1ccc(C[C@H](NC(=O)CCC)C(=O)O)cc1`, the Activity (Plasma [1]) was “inactive”, the Activity (Plasma [2]) was “inactive” and the inhibition [3] was “inactive”. The Activity (Staphylococcus aureus) was “inactive”, the Activity (Bacillus subtilis) was “inactive” and the Activity (Pseudomonas aeruginosa) was “inactive”. For the same compound, the Activity (Escherichia coli) was “inactive”, the Activity (A2780) was “Non-Toxic” and the Activity (HEK293) was “Non-Toxic”.
For `CC#CCOc1ccc(C[C@H](NC(=O)CCCC)C(=O)O)cc1`, the Activity (Plasma [1]) was “inactive”, the Activity (Plasma [2]) was “inactive” and the inhibition [3] was “inactive”. For the same compound, the Activity (Staphylococcus aureus) was “inactive”, the Activity (Bacillus subtilis) was “inactive” and the Activity (Pseudomonas aeruginosa) was “inactive”. The Activity (Escherichia coli) was “inactive”, the Activity (A2780) was “Non-Toxic” and the Activity (HEK293) was “Non-Toxic”.
For `CC#CCOc1ccc(C[C@H](NC(=O)CCCCC)C(=O)O)cc1`, the Activity (Plasma [1]) was “Active”, the Activity (Plasma [2]) was “Active” and the inhibition [4] was “Dose-Dependent Effect”. For the same compound, the IC50 [5] was 610 nM and 603 nM, the Activity (Staphylococcus aureus) was “inactive” and the Activity (Bacillus subtilis) was “inactive”. For the same compound, the Activity (Pseudomonas aeruginosa) was “inactive”, the Activity (Escherichia coli) was “inactive” and the Activity (A2780) was “Non-Toxic”. The Activity (HEK293) was “Non-Toxic”.
`CCCCCC(=O)N[C@@H](Cc1ccc(OCC#CCO)cc1)C(=O)O` was tested, and the Activity (Plasma [1]) was “inactive”, the Activity (Plasma [2]) was “inactive” and the inhibition [3] was “inactive”. For the same compound, the Activity (Staphylococcus aureus) was “inactive”, the Activity (Bacillus subtilis) was “inactive” and the Activity (Pseudomonas aeruginosa) was “inactive”. The Activity (Escherichia coli) was “inactive”, the Activity (A2780) was “Non-Toxic” and the Activity (HEK293) was “Non-Toxic”.
With `CCCCS(=O)(=O)N[C@@H](Cc1ccc(OCCCCC2CCNCC2)cc1)C(=O)O` [TIROFIBAN] the IC50 [5] was 130 nM and 136 nM.
